Laboratory results published in PMC10341573, “Design, Synthesis, and Biological Evaluation of Novel Quinazolin-4(3H)-One-Based Histone Deacetylase 6 (HDAC6) Inhibitors for Anticancer Activity” (International Journal of Molecular Sciences, 2023).
Several values for one entry are separate records, joined by “and”; a condition that tells them apart may be missing. Equal values may be shown once. Read-outs that look alike come from different tables or passages of the source.

Experiments:
A549, MCF-7, and HT-29 = test system: A549, MCF-7, and HT-29; set-up: method as in doi:10.1016/j.molstruc.2022.132422; details: most active in all cell lines examined (A549, MCF-7, HT-29); read-out: IC50, antiproliferative; cited from earlier work
HCT-116 cell line = test system: HCT-116 cell line; set-up: method as in PMID 33214036; details: read-out: IC50, antiproliferative; cited from earlier work
HEK 293 = experiment: MTT cell proliferation assay, HEK 293; assay type: cell-based, human; details: Homo sapiens, read-out: IC50 ± SD HEK 293
HDAC6 = target: T1, HDAC6 (Homo sapiens, UniProt Q9UBN7); experiment: HDAC enzyme activity assay (fluorogenic, Boc-Lys(acetyl)-AMC), HDAC6; assay type: biochemical; details: class IIb HDAC6; mean ± SD, triplicate
T1 construct: Full-length recombinant HDAC6 was purchased from BPS Bioscience; purchased BPS Bioscience
T1 sequence (Q9UBN7 1-1215): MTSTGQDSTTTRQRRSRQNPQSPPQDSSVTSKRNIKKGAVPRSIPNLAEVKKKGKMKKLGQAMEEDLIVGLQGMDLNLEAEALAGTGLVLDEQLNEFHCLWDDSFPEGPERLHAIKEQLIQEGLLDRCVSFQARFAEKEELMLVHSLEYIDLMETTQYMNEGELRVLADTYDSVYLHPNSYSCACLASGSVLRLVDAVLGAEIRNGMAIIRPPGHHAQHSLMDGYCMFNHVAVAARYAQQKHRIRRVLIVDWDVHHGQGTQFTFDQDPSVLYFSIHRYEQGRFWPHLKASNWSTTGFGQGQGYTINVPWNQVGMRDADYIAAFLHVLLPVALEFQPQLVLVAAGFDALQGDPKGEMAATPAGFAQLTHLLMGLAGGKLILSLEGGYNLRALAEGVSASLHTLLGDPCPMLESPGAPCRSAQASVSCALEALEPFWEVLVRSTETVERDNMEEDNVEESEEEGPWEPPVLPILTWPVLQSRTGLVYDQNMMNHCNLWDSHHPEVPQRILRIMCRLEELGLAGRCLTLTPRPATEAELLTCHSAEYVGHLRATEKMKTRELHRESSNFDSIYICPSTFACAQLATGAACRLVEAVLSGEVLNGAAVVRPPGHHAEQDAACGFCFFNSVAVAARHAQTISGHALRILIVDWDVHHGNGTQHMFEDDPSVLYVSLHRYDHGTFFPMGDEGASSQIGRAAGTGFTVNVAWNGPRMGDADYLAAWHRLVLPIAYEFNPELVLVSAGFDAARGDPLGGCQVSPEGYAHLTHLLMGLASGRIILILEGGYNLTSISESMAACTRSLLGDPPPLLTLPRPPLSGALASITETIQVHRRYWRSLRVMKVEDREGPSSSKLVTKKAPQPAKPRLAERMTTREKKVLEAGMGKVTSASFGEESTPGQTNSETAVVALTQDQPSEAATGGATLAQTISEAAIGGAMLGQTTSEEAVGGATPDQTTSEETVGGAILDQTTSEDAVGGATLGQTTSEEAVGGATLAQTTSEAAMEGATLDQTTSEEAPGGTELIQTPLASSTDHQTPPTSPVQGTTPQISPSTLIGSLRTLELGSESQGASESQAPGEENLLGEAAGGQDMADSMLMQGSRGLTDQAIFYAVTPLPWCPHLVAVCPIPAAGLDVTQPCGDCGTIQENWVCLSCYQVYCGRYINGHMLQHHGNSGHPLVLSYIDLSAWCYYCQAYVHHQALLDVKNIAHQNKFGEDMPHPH

B16 = experiment: MTT cell proliferation assay, B16; assay type: cell-based, murine; details: Mus musculus, read-out: IC50 ± SD B16
HDAC4 = target: T2, HDAC4 (Homo sapiens, UniProt P56524); experiment: HDAC enzyme activity assay (fluorogenic, Boc-Lys(trifluoroacetyl)-AMC), HDAC4; assay type: biochemical; details: class IIa HDAC4; mean ± SD, triplicate
T2 construct: catalytic domain of HDAC4 (T648-T1057, full length: UniProt P56524); made in house; host or cells: E. coli BL21(DE3), pET14b vector
T2 sequence (P56524 648-1057): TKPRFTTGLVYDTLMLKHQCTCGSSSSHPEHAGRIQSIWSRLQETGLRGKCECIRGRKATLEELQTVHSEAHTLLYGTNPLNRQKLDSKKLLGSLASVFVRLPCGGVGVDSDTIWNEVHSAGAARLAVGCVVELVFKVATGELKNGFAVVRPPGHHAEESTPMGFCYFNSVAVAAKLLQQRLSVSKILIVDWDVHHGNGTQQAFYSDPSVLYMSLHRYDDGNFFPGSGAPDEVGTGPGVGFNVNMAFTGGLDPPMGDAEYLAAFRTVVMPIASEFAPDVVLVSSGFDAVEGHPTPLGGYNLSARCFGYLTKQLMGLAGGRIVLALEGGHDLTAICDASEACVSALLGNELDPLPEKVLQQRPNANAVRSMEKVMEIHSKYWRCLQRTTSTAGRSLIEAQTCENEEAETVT

HDAC8 = target: T3, HDAC8 (Homo sapiens, UniProt Q9BY41); experiment: HDAC enzyme activity assay (fluorogenic, Boc-Lys(trifluoroacetyl)-AMC), HDAC8; assay type: biochemical; details: class I HDAC8; mean ± SD, triplicate
T3 construct: codon-optimized full-length HDAC8; made in house; host or cells: E. coli BL21(DE3), pET14b vector
T3 sequence (Q9BY41 1-377): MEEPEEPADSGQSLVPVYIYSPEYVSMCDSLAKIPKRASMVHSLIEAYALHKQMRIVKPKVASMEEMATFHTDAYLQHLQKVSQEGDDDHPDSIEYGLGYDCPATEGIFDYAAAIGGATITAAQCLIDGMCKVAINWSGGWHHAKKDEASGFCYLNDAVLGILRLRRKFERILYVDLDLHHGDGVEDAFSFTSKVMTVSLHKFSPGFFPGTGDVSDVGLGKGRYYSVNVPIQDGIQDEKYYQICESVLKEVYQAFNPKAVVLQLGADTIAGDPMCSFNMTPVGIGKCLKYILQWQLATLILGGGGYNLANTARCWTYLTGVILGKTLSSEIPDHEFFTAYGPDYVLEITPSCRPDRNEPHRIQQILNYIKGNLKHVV

HCT116 = experiment: MTT cell proliferation assay, HCT116; assay type: cell-based, human; details: Homo sapiens, read-out: IC50 ± SD HCT116
MCF7 = experiment: MTT cell proliferation assay, MCF7; assay type: cell-based, human; details: Homo sapiens, MCF7, 72 h, read-out: IC50 ± SD MCF7
HCC827 cells = test system: HCC827 cells; set-up: method as in PMID 34403956; details: strongest against all cancer cell lines, read-out: IC50, antiproliferative; cited from earlier work
HDAC = test system: HDAC; set-up: method as in PMID 29223029; details: quinazoline-4-(3H)-one cap group; read-out: IC50 HDAC inhibitory activity; cited from earlier work
[1] = cited from earlier work
[2] = HEK293, MTT, 72 h, mean ± SD, triplicate
[3] = B16, MTT, 72 h, mean ± SD, triplicate
[4] = HCT-116, MTT, 72 h, mean ± SD, triplicate
[5] = MTT, 72 h, mean ± SD, triplicate

Row | IC50 (HDAC6) [µM] | IC50 (B16; [3]) [µM] | IC50 (HDAC4) [µM] | melting point | IC50 (HDAC8) [µM] | IC50 (HCT116; [4]) [µM] | IC50 (MCF7; [5]) [µM] | Compound | IC50 (HEK 293; [2]) [µM] | other results
1 |  |  |  |  |  |  |  | C=CCn1c(SCC(=O)Nc2cccc(C(=O)/C=C/c3ccc(OC)cc3)c2)nc2ccccc2c1=O [A] |  | IC50 (A549, MCF-7, and HT-29): 1.16 µM
2 |  |  |  |  |  |  |  | C/C(=N\NC(=O)c1cc([N+](=O)[O-])ccc1Cl)c1ccc(NC(=O)CSc2nc3ccccc3c(=O)n2-c2ccc(C)cc2)cc1 [B] |  | IC50 (HCT-116 cell line): 11.7 µM
3 | 0.41 ± 0.15 | > 50 | > 35 | 180 °C and 178 to 180 °C | 1.3 ± 0.1 | > 50 | > 50 | Cc1ccccc1-n1c(SCc2ccc(C(=O)NO)cc2)nc2cc(Cl)ccc2c1=O [Compound 5k, 4-(((7-chloro-4-oxo-3-(o-tolyl)-3,4-dihydroquinazolin-2-yl)thio)methyl)-N-hydroxybenzamide] | > 50 | 
4 | 3.9 ± 0.4 | > 50 | 19 | 170 to 175 °C and 173 to 175 °C | 17 | > 50 | > 50 | Cc1ccc(-n2c(SCc3ccc(C(=O)NO)cc3)nc3cc(Cl)ccc3c2=O)cc1 [Compound 5l, 4-(((7-chloro-4-oxo-3-(p-tolyl)-3,4-dihydroquinazolin-2-yl)thio)methyl)-N-hydroxybenzamide] | > 50 | 
5 | 0.32 ± 0.03 | 33.9 ± 5.12 | 6.7 ± 1.1 | 230 to 235 °C and 234 to 235 °C | 0.14 ± 0.02 | > 50 | > 50 | O=C(NO)c1ccc(CSc2nc3cc(Cl)ccc3c(=O)n2-c2ccc(Cl)cc2)cc1 [Compound 5n, 4-(((7-chloro-3-(4-chlorophenyl)-4-oxo-3,4-dihydroquinazolin-2-yl)thio)methyl)-N-hydroxybenzamide] | > 50 | 
6 |  |  |  |  |  |  |  | O=C(c1ccccc1)N(C(=O)c1ccccc1)c1ccc(-c2ccc3ncn(Cc4ccccc4)c(=O)c3c2)cn1 [Compound C] |  | IC50 (HCC827 cells): 1.12 µM
7 |  |  |  |  |  |  |  | COc1cc2ncn(Cc3ccc(C(=O)NO)cc3)c(=O)c2cc1OC [G] |  | IC50 (HDAC): 0.37 µM
8 |  |  |  |  |  |  |  | O=C(NO)c1ccc(CN(c2cnccn2)c2cnccn2)cc1 [KA2507] |  | clinical activity ([1]; phase I/II): prolonged dis-ease stabilization in a subset of patients; toxicity in clinical trial ([1]; phase I/II): no significant toxicities
9 |  |  |  |  |  |  |  | O=C(CCCCCCNC(=O)c1cnc(N(c2ccccc2)c2ccccc2)nc1)NO [Ricolinostat, reference compound] |  | IC50 (HEK 293; HEK293, 72 h): 66.8 ± 10.6 µM; IC50 (B16; B16, 72 h): 89.2 ± 12.5 µM; outcome of combination therapy with bortezomib and dexamethasone ([1]; multiple myeloma): safe, well-tolerated, and active against multiple myeloma; safety of combination with paclitaxel ([1]; patients with metastatic breast cancer): could be safely combined with paclitaxel; single-agent therapy outcome ([1]; single agent): neither significant toxicities nor clinical responses; IC50 (HCT116; HCT-116, 72 h): 40.5 ± 7.69 µM; IC50 (MCF7): > 50 µM
